The assay relates to AML MV4-11 cells. Nature of the assay: siRNA uptake in AML MV4-11 cells by imaging flow cytometry. Type of assay: cell-based. Here is the method:
AML MV4-11 cells in growth medium (RPMI 1640 with 10% FBS) were incubated with Duplex-27 (500 nM) for 1 hour at 37° C. For determining VLA-4 independent binding, 140 (10 μM) was included in one condition to block VLA-4 dependent binding. After incubation, the cells were then washed twice with D-PBS and fixed in 1% paraformaldehyde for 10 minutes. The uptake of siRNA was analyzed by imaging flow cytometry using ImageStreamx (Aminis Corporation, Seattle).
(In flow cytometry, cells or beads pass a laser one at a time.)

Turning to `Cc1cccc(Cl)c1C(=O)N[C@@H](Cc1ccc(NC(=O)c2c(Cl)cccc2Cl)cc1)C(=O)O` [Example 140], the “Mean Cy3 intensity” value (140 alone at 10 μM, 1 hour at 37° C.) turned out to be 663. In addition, the “effect on the histograph shift of the VLA-4-targeted siRNA duplex” value (VLA-4 antagonist 140 present) is reported as “this shift is oblated”.

The values above are taken from patent publication US9447035B2, “Integrin antagonist conjugates for targeted delivery to cells expressing VLA-4” (Hoffmann-La Roche Inc., priority 2012, dated 2016).
